Key:
[1] = Cytotoxicity against NS1 cell line; type: cell-based; conditions: mouse
[2] = Cytotoxicity against NS1 cell line up to 15 uM; type: cell-based; conditions: mouse

Row | Structure (SMILES) | LD99 [1] [µM] | Activity [2]
1 | COc1cc(/C(C)=C/C=C/C=C/C=C/c2[nH]ccc2Cl)oc(=O)c1C | 0.034 | 
2 | COc1cc(/C(C)=C/C=C/C=C/C=C/c2[nH]ccc2Br)oc(=O)c1C | 1.9 | 
3 | COc1cc(/C(C)=C/C=C/C=C/C=C/c2ccc[nH]2)oc(=O)c1C |  | Not Active
